Assay results published in patent publication US10065963B2 (Incyte Corporation, priority 2015, dated 2018).
pIC50: −log10 of the molar value. Structures can show the parent of a compound that is named as a salt.

Tests used:
[1] = molecular target: PI3Kγ (p110γ) Recombinant Human Protein (Homo sapiens (Human), UniProt P48736); assay: PI3K-γ scintillation proximity assay; assay type: biochemical; settings: 2 μM ATP, 20 μM PIP2
[2] = test system: Phosphorylated Ribosomal Protein S6 (RPS6) in THP-1 cells; assay: THP-1 RPS6 ELISA assay; assay type: cell-based, human; settings: Homo sapiens, THP-1, THP-1 cells, 10 nM MCP-1; read-out: PI3Kγ_THP1_RPS6_ELISA IC50
[3] = molecular target: PI3Kδ (p110δ/p85α) Recombinant Human Protein (Homo sapiens (Human), UniProt O00329); assay: PI3Kδ scintillation proximity assay; assay type: biochemical; settings: 2 μM ATP, 20 μM PIP2
PI3Kδ (p110δ/p85α) Recombinant Human Protein, sequence (O00329 whole entry): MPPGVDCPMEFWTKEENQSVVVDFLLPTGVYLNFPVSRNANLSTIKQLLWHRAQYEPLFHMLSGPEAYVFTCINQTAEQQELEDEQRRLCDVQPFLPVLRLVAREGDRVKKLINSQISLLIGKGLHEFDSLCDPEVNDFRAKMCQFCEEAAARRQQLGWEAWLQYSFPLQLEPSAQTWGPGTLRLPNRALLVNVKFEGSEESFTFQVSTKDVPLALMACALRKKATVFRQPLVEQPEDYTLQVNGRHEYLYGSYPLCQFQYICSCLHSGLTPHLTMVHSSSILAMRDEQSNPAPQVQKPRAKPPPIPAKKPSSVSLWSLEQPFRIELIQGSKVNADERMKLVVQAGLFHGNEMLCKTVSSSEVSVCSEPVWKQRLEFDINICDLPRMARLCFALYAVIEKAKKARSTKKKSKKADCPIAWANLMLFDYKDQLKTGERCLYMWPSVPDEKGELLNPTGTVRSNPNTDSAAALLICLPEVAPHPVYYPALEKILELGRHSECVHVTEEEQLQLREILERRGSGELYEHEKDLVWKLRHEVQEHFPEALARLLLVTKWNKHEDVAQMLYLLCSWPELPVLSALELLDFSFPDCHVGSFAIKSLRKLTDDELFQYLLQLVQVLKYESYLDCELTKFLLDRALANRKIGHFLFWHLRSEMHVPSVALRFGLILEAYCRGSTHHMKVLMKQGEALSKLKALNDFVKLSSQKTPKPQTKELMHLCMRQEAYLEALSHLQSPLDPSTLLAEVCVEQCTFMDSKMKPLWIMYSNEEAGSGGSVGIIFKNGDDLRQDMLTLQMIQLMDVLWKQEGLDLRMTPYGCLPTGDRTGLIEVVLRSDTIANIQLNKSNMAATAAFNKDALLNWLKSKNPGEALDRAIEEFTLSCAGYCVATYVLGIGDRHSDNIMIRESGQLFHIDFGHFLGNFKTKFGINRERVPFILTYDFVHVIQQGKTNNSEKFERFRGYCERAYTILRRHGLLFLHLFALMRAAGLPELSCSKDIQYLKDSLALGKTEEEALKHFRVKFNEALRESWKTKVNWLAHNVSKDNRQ
PI3Kδ (p110δ/p85α) Recombinant Human Protein, sequence (P27986 whole entry partner): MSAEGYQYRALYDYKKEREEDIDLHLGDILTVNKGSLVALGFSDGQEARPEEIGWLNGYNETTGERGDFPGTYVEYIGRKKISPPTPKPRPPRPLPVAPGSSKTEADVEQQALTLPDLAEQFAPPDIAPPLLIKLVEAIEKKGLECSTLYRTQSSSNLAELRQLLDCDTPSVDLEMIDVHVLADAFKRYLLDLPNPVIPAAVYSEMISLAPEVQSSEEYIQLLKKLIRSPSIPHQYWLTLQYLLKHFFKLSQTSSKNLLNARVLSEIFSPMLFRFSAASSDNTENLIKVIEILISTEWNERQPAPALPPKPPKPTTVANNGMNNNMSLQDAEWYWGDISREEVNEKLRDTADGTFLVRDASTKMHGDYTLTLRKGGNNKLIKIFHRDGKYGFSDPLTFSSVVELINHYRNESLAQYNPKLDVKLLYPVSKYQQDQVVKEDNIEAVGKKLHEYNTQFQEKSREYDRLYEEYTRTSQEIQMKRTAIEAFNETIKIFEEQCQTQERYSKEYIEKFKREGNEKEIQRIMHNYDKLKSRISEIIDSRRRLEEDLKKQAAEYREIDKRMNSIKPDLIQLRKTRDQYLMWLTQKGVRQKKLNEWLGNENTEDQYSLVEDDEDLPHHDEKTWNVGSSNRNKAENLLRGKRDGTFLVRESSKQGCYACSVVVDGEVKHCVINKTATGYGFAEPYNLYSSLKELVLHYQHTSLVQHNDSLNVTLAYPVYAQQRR

PI3Kγ (p110γ) Recombinant Human Protein, sequence (P48736 whole entry): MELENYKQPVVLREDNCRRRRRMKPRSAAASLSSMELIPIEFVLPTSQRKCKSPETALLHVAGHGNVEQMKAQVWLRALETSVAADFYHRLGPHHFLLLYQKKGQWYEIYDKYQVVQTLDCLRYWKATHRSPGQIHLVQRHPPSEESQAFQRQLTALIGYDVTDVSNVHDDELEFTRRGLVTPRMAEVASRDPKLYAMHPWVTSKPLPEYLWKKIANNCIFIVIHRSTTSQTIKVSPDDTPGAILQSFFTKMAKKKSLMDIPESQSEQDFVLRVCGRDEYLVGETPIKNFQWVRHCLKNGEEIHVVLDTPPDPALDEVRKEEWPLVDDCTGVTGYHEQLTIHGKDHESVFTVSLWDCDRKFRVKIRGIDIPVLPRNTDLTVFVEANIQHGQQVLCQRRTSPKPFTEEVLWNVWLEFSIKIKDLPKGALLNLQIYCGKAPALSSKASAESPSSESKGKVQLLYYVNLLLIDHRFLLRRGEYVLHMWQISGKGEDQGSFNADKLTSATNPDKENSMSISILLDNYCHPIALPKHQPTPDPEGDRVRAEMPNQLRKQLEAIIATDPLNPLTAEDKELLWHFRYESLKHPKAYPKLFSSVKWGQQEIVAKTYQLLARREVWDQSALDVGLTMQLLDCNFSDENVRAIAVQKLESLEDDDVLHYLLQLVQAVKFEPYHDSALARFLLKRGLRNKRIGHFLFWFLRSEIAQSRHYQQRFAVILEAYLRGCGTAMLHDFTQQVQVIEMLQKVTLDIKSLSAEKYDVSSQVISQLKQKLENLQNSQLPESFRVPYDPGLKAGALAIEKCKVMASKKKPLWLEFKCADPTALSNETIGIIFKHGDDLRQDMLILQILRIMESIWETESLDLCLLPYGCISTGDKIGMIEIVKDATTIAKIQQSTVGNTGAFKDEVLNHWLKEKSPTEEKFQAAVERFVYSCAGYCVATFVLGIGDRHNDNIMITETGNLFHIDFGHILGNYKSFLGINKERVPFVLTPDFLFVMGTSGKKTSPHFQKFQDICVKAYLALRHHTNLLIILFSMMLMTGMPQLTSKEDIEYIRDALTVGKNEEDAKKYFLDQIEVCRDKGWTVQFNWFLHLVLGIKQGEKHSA

CC(NC(=O)c1c(N)nn2cccnc12)c1cc(Cl)c2cn[nH]c2c1N1CCC(O)C1 (racemic) [Example 90A, 2-Amino-N-{1-[4-chloro-7-(3-hydroxypyrrolidin-1-yl)-2H-indazol-6-yl]ethyl}pyrazolo[1,5-a]pyrimidine-3-carboxamide bis(trifluoroacetate)]
pIC50 [1]: > 7.00
pIC50 [2]: > 6.30
pIC50 [3]: > 6.30

CC(NC(=O)c1c(N)nn2cccnc12)c1cc(Cl)c2cncn2c1N1C[C@H](O)C[C@H](O)C1 (stereo partly drawn) [Example 155B, 2-Amino-N-(1-{8-chloro-5-[(3R,5S)-3,5-dihydroxypiperidin-1-yl]imidazo[1,5-a]pyridin-6-yl}ethyl)pyrazolo[1,5-a]pyrimidine-3-carboxamide trifluoroacetate salt]
pIC50 [1]: > 7.00
pIC50 [2]: > 6.30
pIC50 [3]: > 7.00

CCOc1c(C(C)NC(=O)c2c(N)nn3ccc(-c4cncc(OC)c4)nc23)cc(Cl)c2cn[nH]c12 (stereo not drawn) [Example 41, 2-Amino-N-(1-(4-chloro-7-ethoxy-1H-indazol-6-yl)ethyl)-5-(5-methoxypyridin-3-yl)pyrazolo[1,5-a]pyrimidine-3-carboxamide]
pIC50 [1]: > 7.00
pIC50 [2]: > 6.30
pIC50 [3]: > 7.00

CNS(=O)(=O)c1ccc(-c2c(C(C)NC(=O)c3c(N)nn4cccnc34)cc(Cl)c3cncn23)cc1 (racemic) [Example 135, 2-Amino-N-[1-(8-chloro-5-{4-[(methylamino)sulfonyl]phenyl}imidazo[1,5-a]pyridin-6-yl)ethyl]pyrazolo[1,5-a]pyrimidine-3-carboxamide trifluoroacetate salt]
pIC50 [1]: > 7.00
pIC50 [2]: < 6.00
pIC50 [3]: > 6.30

Cc1ncc2c(Cl)cc(C(C)NC(=O)c3c(N)nn4cccnc34)c(N3CCCS(=O)(=O)CC3)n12 (racemic) [Example 158, 2-Amino-N-(1-(8-chloro-5-(1,1-dioxido-1,4-thiazepan-4-yl)-3-methylimidazo[1,5-a]pyridin-6-yl)ethyl)pyrazolo[1,5-a]pyrimidine-3-carboxamide trifluoroacetate salt]
pIC50 [1]: > 7.00
pIC50 [2]: > 6.30
pIC50 [3]: > 6.30

CC(NC(=O)c1c(N)nn2cccnc12)c1cc(Cl)c2cncn2c1N1CCC(F)(F)C1 (stereo not drawn) [Example 68, 2-Amino-N-{1-[8-chloro-5-(3,3-difluoropyrrolidin-1-yl)imidazo[1,5-a]pyridin-6-yl]ethyl}pyrazolo[1,5-a]pyrimidine-3-carboxamide bistrifluoroacetate]
pIC50 [1]: > 7.00
pIC50 [2]: > 6.30
pIC50 [3]: > 7.00

CC(NC(=O)c1c(N)nn2cccnc12)c1cc(Cl)c2c(C#N)ncn2c1-c1cccnc1 (racemic) [Example 128, 2-Amino-N-[1-(8-chloro-1-cyano-5-pyridin-3-ylimidazo[1,5-a]pyridin-6-yl)ethyl]pyrazolo[1,5-a]pyrimidine-3-carboxamide trifluoroacetate salt]
pIC50 [1]: > 7.00
pIC50 [2]: < 6.00
pIC50 [3]: > 5.70

COC1CC=C(c2c(C(C)NC(=O)c3c(N)nn4cccnc34)cc(Cl)c3cn[nH]c23)CC1 (stereo not drawn) [Example 100, 2-Amino-N-{1-[4-chloro-7-(4-methoxycyclohex-1-en-1-yl)-2H-indazol-6-yl]ethyl}pyrazolo[1,5-a]pyrimidine-3-carboxamide trifluoroacetate]
pIC50 [1]: > 7.00
pIC50 [2]: < 6.00
pIC50 [3]: > 6.30

CC(NC(=O)c1c(N)nn2cccnc12)c1cc(Cl)c2cn[nH]c2c1N1CCC(O)C1 (single isomer, unassigned) [Example 90B, 2-Amino-N-{1-[4-chloro-7-(3-hydroxypyrrolidin-1-yl)-2H-indazol-6-yl]ethyl}pyrazolo[1,5-a]pyrimidine-3-carboxamide bis(trifluoroacetate)]
pIC50 [1]: > 7.00
pIC50 [2]: > 6.30
pIC50 [3]: > 6.30

CC(NC(=O)c1c(N)nn2cccnc12)c1cc(Cl)c2cncn2c1N1CCCC[C@H]1C (stereo partly drawn) [Example 72A, 2-Amino-N-{1-[8-chloro-5-[(2R)-2-methylpiperidin-1-yl)imidazo[1,5-a]pyridin-6-yl]ethyl}pyrazolo[1,5-a]pyrimidine-3-carboxamide bistrifluoroacetate]
pIC50 [1]: > 7.00
pIC50 [2]: > 6.30
pIC50 [3]: > 7.00

CC(NC(=O)c1c(N)nn2cccnc12)c1cc(Cl)c2cncn2c1N1CCCC(F)(F)C1 (stereo not drawn) [Example 67, 2-Amino-N-{1-[8-chloro-5-(3,3-difluoropiperidin-1-yl)imidazo[1,5-a]pyridin-6-yl]ethyl}pyrazolo[1,5-a]pyrimidine-3-carboxamide bis trifluroacetate]
pIC50 [1]: > 7.00
pIC50 [2]: > 6.30
pIC50 [3]: > 7.00

C[C@H](NC(=O)c1c(N)nn2cccnc12)c1cc(Cl)c2ccnn2c1N1CCS(=O)(=O)CC1 [Example 57, (S)-2-Amino-N-(1-(4-chloro-7-(1,1-dioxidothiomorpholino)pyrazolo[1,5-a]pyridin-6-yl)ethyl)pyrazolo[1,5-a]pyrimidine-3-carboxamide trifluoroacetate]
pIC50 [1]: > 7.00
pIC50 [2]: > 6.30
pIC50 [3]: > 7.00

CC(NC(=O)c1c(N)nn2cccnc12)c1cc(Cl)c2ccnn2c1N1CCNS(=O)(=O)CC1 (stereo not drawn) [Example 110, 2-Amino-N-{1-[4-chloro-7-(1,1-dioxido-1,2,5-thiadiazepan-5-yl)pyrazolo[1,5-a]pyridin-6-yl]ethyl}pyrazolo[1,5-a]pyrimidine-3-carboxamide trifluoroacetate]
pIC50 [1]: > 7.00
pIC50 [2]: > 6.30
pIC50 [3]: > 7.00

CC(NC(=O)c1c(N)nn2cccnc12)c1cc(Cl)c2cncn2c1N1CCCC(C)(O)C1 (single isomer, unassigned) [Example 76A, 2-Amino-N-{1-[8-chloro-5-(3-hydroxy-3-methylpiperidin-1-yl)imidazo[1,5-a]pyridin-6-yl]ethyl}pyrazolo[1,5-a]pyrimidine-3-carboxamide trifluoroacetate]
pIC50 [1]: > 7.00
pIC50 [2]: > 6.30
pIC50 [3]: > 7.00

CCOc1c(C(C)NC(=O)c2c(N)nc3ccc(Cl)nn23)cc(Cl)c2cn[nH]c12 (stereo not drawn) [Example 45, 2-Amino-6-chloro-N-(1-(4-chloro-7-ethoxy-1H-indazol-6-yl)ethyl)imidazo[1,2-b]pyridazine-3-carboxamide]
pIC50 [1]: > 7.00
pIC50 [2]: > 6.30
pIC50 [3]: > 7.00

CC1CN(c2c(CNC(=O)c3c(N)nn4cccnc34)cc(Cl)c3c(C#N)ncn23)CCS1(=O)=O (stereo not drawn) [Example 174, 2-Amino-N-((8-chloro-1-cyano-5-(2-methyl-1,1-dioxidothiomorpholino)imidazo[1,5-a]pyridin-6-yl)methyl)pyrazolo[1,5-a]pyrimidine-3-carboxamide trifluoroacetate salt]
pIC50 [1]: > 7.00
pIC50 [2]: < 6.00
pIC50 [3]: > 5.70

CC(NC(=O)c1c(N)nn2cccnc12)c1cc(Cl)c2c(Cl)cnn2c1N1CCS(=O)(=O)C(C)(C)C1 (stereo not drawn) [Example 116, 2-Amino-N-{1-[3,4-dichloro-7-(2,2-dimethyl-1,1-dioxidothiomorpholin-4-yl)pyrazolo[1,5-a]pyridin-6-yl]ethyl}pyrazolo[1,5-a]pyrimidine-3-carboxamide trifluoroacetate]
pIC50 [1]: > 7.00
pIC50 [2]: > 6.30
pIC50 [3]: > 7.00

CC(NC(=O)c1c(N)nn2cccnc12)c1cc(Cl)c2cncn2c1N1CCN(S(C)(=O)=O)CC1 (racemic) [Example 141, 2-Amino-N-(1-{8-chloro-5-[4-(methylsulfonyl)piperazin-1-yl]imidazo[1,5-a]pyridin-6-yl}ethyl)pyrazolo[1,5-a]pyrimidine-3-carboxamide trifluoroacetate salt]
pIC50 [1]: > 7.00
pIC50 [2]: > 6.30
pIC50 [3]: > 6.30

CC(NC(=O)c1c(N)nn2cccnc12)c1cc(Cl)c2ccnn2c1N1CCS(=O)(=O)C(C)(C)C1 (stereo not drawn) [Example 111, 2-Amino-N-{1-[4-chloro-7-(2,2-dimethyl-1,1-dioxidothiomorpholin-4-yl)pyrazolo[1,5-a]pyridin-6-yl]ethyl}pyrazolo[1,5-a]pyrimidine-3-carboxamide trifluoroacetate]
pIC50 [1]: > 7.00
pIC50 [2]: > 6.30
pIC50 [3]: > 7.00

CCOC(=O)C1CCN(c2c(C(C)NC(=O)c3c(N)nn4cccnc34)cc(Cl)c3cn[nH]c23)CC1 (stereo not drawn) [Example 106, Ethyl 1-[6-(1-{[(2-aminopyrazolo[1,5-a]pyrimidin-3-yl)carbonyl]amino}ethyl)-4-chloro-2H-indazol-7-yl]piperidine-4-carboxylate trifluoroacetate]
pIC50 [1]: > 7.00
pIC50 [2]: < 6.00
pIC50 [3]: > 6.30

CC(NC(=O)c1c(N)nn2cccnc12)c1cc(Cl)c2cncn2c1N1CCCC1 (racemic) [Example 142, 2-Amino-N-[1-(8-chloro-5-pyrrolidin-1-ylimidazo[1,5-a]pyridin-6-yl)ethyl]pyrazolo[1,5-a]pyrimidine-3-carboxamide trifluoroacetate salt]
pIC50 [1]: > 7.00
pIC50 [2]: > 6.30
pIC50 [3]: > 7.00

CC(NC(=O)c1c(N)nn2cccnc12)c1cc(Cl)c2cncn2c1N1CCS(=O)(=O)CC1C (single isomer, unassigned) [Example 38A, 2-Amino-N-(1-[8-chloro-5-(3-methyl-1,1-dioxidothiomorpholin-4-yl)imidazo[1,5-a]pyridin-6-yl]ethyl)pyrazolo[1,5-a]pyrimidine-3-carboxamide trifluoroacetate salt]
pIC50 [1]: > 7.00
pIC50 [2]: > 6.30
pIC50 [3]: > 7.00

Cc1ncn2c(-c3cccnc3)c(C(C)NC(=O)c3c(N)nn4cccnc34)cc(Cl)c12 (racemic) [Example 129, 2-Amino-N-[1-(8-chloro-1-methyl-5-pyridin-3-ylimidazo[1,5-a]pyridin-6-yl)ethyl]pyrazolo[1,5-a]pyrimidine-3-carboxamide trifluoroacetate salt]
pIC50 [1]: > 7.00
pIC50 [2]: > 6.00
pIC50 [3]: > 5.70
